These results are taken from patent US9481796B2, “Method for producing nanoparticles” (M. Technique Co., Ltd., priority 2010, dated 2016).

The series in a line: Volume-average particle diameter of benzbromarone nanoparticles (Nanotrac particle size distribution), Example 2-2. Type of series: physicochemical. The settings on record: ethanol solution of 3% benzbromarone/0.1% Tween 80 into pure water. Here is the method: Particle size distribution was measured by using a Nanotrac particle size distribution measurement instrument (UPA-EX150, manufactured by Nikkiso Co., Ltd.), and the volume-average particle diameter was taken. An ethanol solution in which benzbromarone and Tween 80 (dispersant) were dissolved with the concentrations thereof being 3% for benzbromarone and 0.1% for Tween 80 was introduced as a second fluid into between the processing surfaces 1 and 2 at a rate of 10 mL/minute, together with pure water as a first fluid from the center at supply pressure of 0.25 MPa, a rotation speed of 700 rpm, and a rate of 200 g/minute, whereby the two fluids were mixed. The dispersion solution of benzbromarone was discharged. Temperature conditions of the first fluid and the second fluid, and results of particle size distribution of the obtained dispersion solution are shown in Table 3. The particle diameters of nanoparticles obtained in respective conditions were confirmed by a transmission electron microscope (TEM); it was confirmed that the particle diameter confirmed by the TEM picture was identical to the measurement result of the particle size distribution. The SEM picture of the nanoparticles obtained under the temperature conditions of 25° C. for the first fluid and 25° C. for the second fluid (ΔT=0° C.) is shown in FIG. 17; and the TEM picture of the nanoparticles obtained under the temperature conditions of 5° C. for the first fluid and 35° C. for the second fluid (ΔT=30° C.) is shown in FIG. 18, respectively.

SMILES strings stand for the structures.

As for `CCc1oc2ccccc2c1C(=O)c1cc(Br)c(O)c(Br)c1` [benzbromarone], the Volume-average particle diameter (T1 5°C, T2 5°C, ΔT 0) was determined as 229.3 nm; the Volume-average particle diameter (T1 5°C, T2 8°C, ΔT 3) stood at 204.6 nm; the Volume-average particle diameter (T1 5°C, T2 10°C, ΔT 5) is listed as 51.3 nm; the Volume-average particle diameter (T1 5°C, T2 35°C, ΔT 30) was 58.6 nm; the Volume-average particle diameter (T1 25°C, T2 25°C, ΔT 0) came to 208.4 nm.
